The record followed here is patent US20090170844A1, “Spiro Tetracyclic Compound” (priority 2006, published 2009).

For one assay, the system named is human plasma. As to the kind of experiment: Anticoagulant activity in vitro: intrinsic coagulation time (APTT). The assay is classed as biochemical. As to conditions: APTT reagent, calcium chloride 25 mM. The method, then:
Activated partial thromboplastin time (APTT) is measured in the presence of the test compounds of the present invention diluted at various concentrations. To be more specific, each of the test compounds diluted with DMSO at various concentrations is mixed with human plasma and APTT reagent. The mixture is incubated at 37° C. for 2 minutes; calcium chloride (25 mM) is added to the mixture; and the coagulation time is thereafter measured. It should be noted that the anticoagulant activity of the test compound is described in terms of the concentration required to double the coagulation time for the case where no test compound is added.

The target in a further assay is T1, human FXa (Homo sapiens, UniProt P00742).
T1 construct: purchased Enzyme Research Laboratories, Inc
As to the kind of experiment: Measurement of the human FXa inhibitory action (synthetic substrate S-2222). Type of assay: biochemical. As to conditions: human FXa 0.019 U/ml, S-2222 0.4 mM, 37° C., pH 7.5. On the procedure:
In vitro FXa inhibitory activity may be measured according to the method of Kettner et al. (Journal of Biological Chemistry, vol. 265, pages 18289 to 18297, 1990). To be more specific, human FXa (product of Enzyme Research Laboratories, Inc., 0.019 U/ml) is mixed with the specimens (of the compound of the present invention) prepared by diluting the compound of the invention with dimethylsulfoxide (DMSO) to different concentrations and synthetic substrate S-2222 (Chromogenix AB, 0.4 mM), and the mixtures are incubated at 37° C. in Tris-hydrochloric acid buffer (pH 7.5). The FXa inhibitory activity of the specimen is calculated by measuring the absorbance at 405 nm.
It should be noted that the FXa inhibitory activity of the specimen is generally indicated as IC50.

T1 sequence (P00742 235-488 limits assumed): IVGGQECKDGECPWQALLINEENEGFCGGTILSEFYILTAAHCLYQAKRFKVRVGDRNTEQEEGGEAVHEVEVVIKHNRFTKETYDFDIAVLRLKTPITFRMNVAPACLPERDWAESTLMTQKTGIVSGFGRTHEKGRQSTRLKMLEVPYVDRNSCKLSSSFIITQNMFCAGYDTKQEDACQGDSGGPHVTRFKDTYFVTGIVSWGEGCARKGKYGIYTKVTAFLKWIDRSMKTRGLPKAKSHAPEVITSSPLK
T1 sequence (P00742 41-179 partner limits assumed): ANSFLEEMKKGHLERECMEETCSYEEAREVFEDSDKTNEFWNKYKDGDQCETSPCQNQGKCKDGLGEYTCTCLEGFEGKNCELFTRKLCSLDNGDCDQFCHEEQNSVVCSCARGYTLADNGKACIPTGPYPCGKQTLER

As to `CN1CC23CN(S(=O)(=O)c4cc5ccc(Cl)cc5s4)CC(=O)N2CC2(CCN(C4=NCCCO4)CC2)N3C1=O` (single isomer, unassigned; (-)) [Example 12, (−)-3′,5′,8′,11′-tetraaza-11′-(6-chlorobenzo[b]thiophen-2-ylsulfonyl)-1-(5,6-dihydro-4H-1,3-oxazin-2-yl)-3′-methylspiro[piperidine-4,6′-tricyclo[6.4.0.0^1,5]dodecane]-4′,9′-dione], the “Concentration when APTT was doubled” value with human plasma was 0.34 µM.
Compound `O=C1CN(S(=O)(=O)c2ccc3cc(Cl)ccc3c2)CC23CNC(=O)N2C2(CCN(c4cccnn4)CC2)CN13` (racemic) [Example 3, (±)-3′,5′,8′,11′-tetraaza-11′-(6-chloronaphthalen-2-ylsulfonyl)-1-(3-pyridazinyl)spiro[piperidine-4,6′-tricyclo[6.4.0.0^1,5]dodecane]-4′,9′-dione] gave an IC50 against human FXa of 4.1 nM.
With `CN1CC23CN(S(=O)(=O)c4ccc5cc(Cl)ccc5c4)CC(=O)N2CC2(CCN(C4=NCCO4)CC2)N3C1=O` (single isomer, unassigned; (-)) [Example 29, (−)-3′,5′,8′,11′-tetraaza-11′-(6-chloronaphthalen-2-ylsulfonyl)-3′-methyl-1-(2-oxazolinyl)spiro[piperidine-4,6′-tricyclo[6.4.0.0^1,5]dodecane]-4′,9′-dione], the 50% inhibitory concentration (IC50) on human FXa amounted to 2.4 nM.
The same measure, in the same setting: under `CN1CC23CN(S(=O)(=O)c4cc5ccc(Cl)cc5s4)CC(=O)N2CC2(CCN(C4=NCCO4)CC2)N3C1=O` (single isomer, unassigned; (-)) [Example 11, (−)-3′,5′,8′,11′-tetraaza-11′-(6-chlorobenzo[b]thiophen-2-ylsulfonyl)-3′-methyl-1-(2-oxazolinyl)spiro[piperidine-4,6′-tricyclo[6.4.0.0^1,5]dodecane]-4′,9′-dione] stands 4.7 nM; under `CN1CC23CN(S(=O)(=O)c4cc5cc(Cl)ccc5[nH]4)CC(=O)N2CC2(CCN(C4=NCCO4)CC2)N3C1=O` (single isomer, unassigned; (-)) [Example 17, (−)-3′,5′,8′,11′-tetraaza-11′-(5-chloro-1H-indol-2-ylsulfonyl)-3′-methyl-1-(2-oxazolinyl)spiro[piperidine-4,6′-tricyclo[6.4.0.0^1,5]dodecane]-4′,9′-dione], 0.4 nM.
For the compound `CCC(=O)N1CCC2(CC1)CN1C(=O)CN(S(=O)(=O)c3cc4cc(Cl)ccc4[nH]3)CC13CN(C)C(=O)N23` (single isomer, unassigned; (-)) [Example 22, (−)-3′,5′,8′,11′-tetraaza-11′-(5-chloro-1H-indol-2-ylsulfonyl)-3′-methyl-1-propionylspiro[piperidine-4,6′-tricyclo[6.4.0.0^1,5]dodecane]-4′,9′-dione], the IC50 on human FXa was 4 nM.
Consider `CN1CN2C3(CCN(c4ccncc4)CC3)CN3C(=O)CN(S(=O)(=O)c4ccc5cc(Cl)ccc5c4)CC32C1` (racemic) [Example 5, (±)-3′,5′,8′,11′-tetraaza-11′-(6-chloronaphthalen-2-ylsulfonyl)-3′-methyl-1-(4-pyridyl)spiro[piperidine-4,6′-tricyclo[6.4.0.0^1,5]dodecan]-9′-one], for which, at human FXa, the IC50 was found to be 4 nM.
`CN1CC23CN(S(=O)(=O)c4cc5cc(Cl)ccc5[nH]4)CC(=O)N2CC2(CCN(C4=NCCCO4)CC2)N3C1=O` (single isomer, unassigned; (-)) [Example 18, (−)-3′,5′,8′,11′-tetraaza-11′-(5-chloro-1H-indol-2-ylsulfonyl)-1-(5,6-dihydro-4H-1,3-oxazin-2-yl)-3′-methylspiro[piperidine-4,6′-tricyclo[6.4.0.0^1,5]dodecane]-4′,9′-dione] showed an IC50 at human FXa of 4.3 nM. Also, the “Concentration when APTT was doubled” value with human plasma turned out to be 0.26 µM.
As for `O=C1CN(S(=O)(=O)c2ccc3cc(Cl)ccc3c2)CC23CNC(=O)N2C2(CCN(C4=NCCO4)CC2)CN13` (racemic) [Example 2, (±)-3′,5′,8′,11′-tetraaza-11′-(6-chloronaphthalen-2-ylsulfonyl)-1-(2-oxazolinyl)spiro[piperidine-4,6′-tricyclo[6.4.0.0^1,5]dodecane]-4′,9′-dione], the IC50 on human FXa was 4.8 nM.
On human FXa, `CN1CC23CN(S(=O)(=O)c4cc5cc(Cl)ccc5[nH]4)CC(=O)N2CC2(CCN(C4=NCCCC4)CC2)N3C1=O` (single isomer, unassigned; (-)) [Example 20, (−)-3′,5′,8′,11′-tetraaza-11′-(5-chloro-1H-indol-2-ylsulfonyl)-1-(3,4,5,6-tetrahydropyridin-2-yl)-3′-methylspiro[piperidine-4,6′-tricyclo[6.4.0.0^1,5]dodecane]-4′,9′-dione] gave an IC50 of 3 nM. In the assay on human plasma, the “Concentration when APTT was doubled” value is 0.24 µM.
With `CN1CC23CN(S(=O)(=O)c4cc5ccc(Cl)cc5s4)CC(=O)N2CC2(CCN(C4=NCCCC4)CC2)N3C1=O` (single isomer, unassigned; (-)) [Example 14, (−)-3′,5′,8′,11′-tetraaza-11′-(6-chlorobenzo[b]thiophen-2-ylsulfonyl)-1-(3,4,5,6-tetrahydropyridin-2-yl)-3′-methylspiro[piperidine-4,6′-tricyclo[6.4.0.0^1,5]dodecane]-4′,9′-dione], half-maximal inhibition against human FXa (IC50) was put at 3.6 nM. For the same compound, the “Concentration when APTT was doubled” value in the assay on human plasma was found to be 0.24 µM.
`CN1CC23CN(S(=O)(=O)c4ccc5cc(Cl)ccc5c4)CC(=O)N2CC2(CCN(C4=NCCCC4)CC2)N3C1=O` (single isomer, unassigned; (-)) [Example 8, (−)-3′,5′,8′,11′-tetraaza-11′-(6-chloronaphthalen-2-ylsulfonyl)-1-(3,4,5,6-tetrahydropyridin-2-yl)-3′-methylspiro[piperidine-4,6′-tricyclo[6.4.0.0^1,5]dodecane]-4′,9′-dione]: the “Concentration when APTT was doubled” value in the assay on human plasma is 0.27 µM.
